Experimental data: US20050148631A1, “Amino heterocyclyl inhibitors of 11-beta-hydroxy steroid dehydrogenase type 1” (AGOURON PHARMACEUTICALS, INC., priority 2003, published 2005)
Like-named read-outs stand apart in the source and are kept apart here.

Target: 11β-hsd-1 enzyme (Homo sapiens, UniProt P28845)
Assay: 11β-hsd-1 enzyme assay, percentage of inhibition (3H-cortisone to cortisol, radio-HPLC)
Type: biochemical
Settings: for inhibition at 0.1 µM: read-out: % inh @ 0.1 uM

Chain of 11β-hsd-1 enzyme (P28845 whole entry, species assumed): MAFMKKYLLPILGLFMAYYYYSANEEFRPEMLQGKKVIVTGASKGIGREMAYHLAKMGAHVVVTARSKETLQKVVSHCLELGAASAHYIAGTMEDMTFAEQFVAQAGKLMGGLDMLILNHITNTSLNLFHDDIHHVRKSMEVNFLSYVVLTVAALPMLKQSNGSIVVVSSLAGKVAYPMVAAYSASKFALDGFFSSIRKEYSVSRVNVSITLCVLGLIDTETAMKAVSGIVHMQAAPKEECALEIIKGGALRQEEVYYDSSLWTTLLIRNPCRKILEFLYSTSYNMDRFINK

Row | SMILES | inhibition at 0.1 µM (compound at 0.1 uM) [%] | inhibition at 0.1 µM (0.1 uM) [%] | also measured
1 | Cc1cccc(NS(=O)(=O)c2ccc(C(C)(C)C)cc2)n1 [Example 52] | – | 32 | –
2 | Cc1cc(C)nc(NS(=O)(=O)c2cccc(Cl)c2C)n1 [Example 58] | – | 4 | –
3 | Cc1c(S(=O)(=O)Nc2cccc(CN(C)C)n2)sc2ccc(Cl)cc12 [Example 84] | – | 26.4 | –
4 | O=S(=O)(Nc1cccc(CN2CCOCC2)n1)c1ccc(-c2ccccc2)cc1 [Example 64] | – | 8.9 | –
5 | Cc1c(Cl)cccc1S(=O)(=O)Nc1cccc(CC(=O)N(C)C)n1 [Example 31] | – | 11.3 | –
6 | Cc1cccc(NS(=O)(=O)c2ccc(Oc3ccccc3)cc2)n1 [Example 47] | – | 21 | –
7 | COC(=O)c1cccc(NS(=O)(=O)c2ccc(-c3ccc(C#N)cc3)cc2)n1 [Example 7] | – | 7.7 | –
8 | Cc1c(Cl)cccc1S(=O)(=O)Nc1cccc(CC(=O)NCc2ccc(C(F)(F)F)cc2)n1 [Example 13] | – | 9.1 | –
9 | Cc1cc(C)nc(NS(=O)(=O)c2ccc(C(F)(F)F)cc2)c1 [Example 45] | – | – | % inh @ 0.1 uM (0.1 uM): 35%
10 | CCN(CC)C(=O)Cc1cccc(NS(=O)(=O)c2ccc(C)cc2)n1 [Example 23] | – | 4.9 | –
11 | Cc1cc(C)nc(NS(=O)(=O)c2sc(-c3ccccc3)nc2C)c1 [Example 97] | – | 31.7 | –
12 | CCN(CC)C(=O)Cc1cccc(NS(=O)(=O)c2ccc(C(C)C)cc2)n1 [Example 25] | – | 42.8 | –
13 | Cc1cccc(NS(=O)(=O)Cc2ccc(C(F)(F)F)cc2)n1 [Example 73] | – | 17.3 | –
14 | Cc1cccc(NS(=O)(=O)c2ccc(C#N)cc2Cl)n1 [Example 53] | – | 10.1 | –
15 | O=S(=O)(Nc1ccc2nc[nH]c2c1)c1ccc(-c2ccc(F)cc2)cc1 [Example 60] | – | 31.9 | –
16 | Cc1c(Cl)cccc1S(=O)(=O)Nc1cccc(CC(=O)N(C)C(C)C)n1 [Example 30] | – | 15.9 | –
17 | CCN(CC)C(=O)Cc1cccc(NS(=O)(=O)c2ccc(F)cc2)n1 [Example 24] | – | 3.7 | –
18 | Cc1cccc(NS(=O)(=O)c2ccccc2C(F)(F)F)n1 [Example 54] | – | 1 | –
19 | Cc1ccc(NS(=O)(=O)c2ccc(-c3ccccc3)cc2)nc1 [Example 66] | – | 33.8 | –
20 | Cc1c(Cl)cccc1S(=O)(=O)Nc1cccc(CC(=O)N(CCC#N)C2CC2)n1 [Example 29] | – | 10.9 | –
21 | Cc1cccc(NS(=O)(=O)c2cccc3ccccc23)n1 [Example 51] | – | 10.2 | –
22 | O=S(=O)(Nc1ccc2cc[nH]c2c1)c1ccc(-c2ccc(F)cc2)cc1 [Example 57] | – | 4.5 | –
23 | Cc1c(Cl)cccc1S(=O)(=O)Nc1cccc(CC(=O)O)n1 [Example 26, [6-(3-Chloro-2-methyl-benzenesulfonylamino)-pyridin-2-yl]-acetic acid] | – | 25.2 | –

Second part, led by results:

Row | inhibition at 0.1 µM (compound at 0.1 uM) [%] | inhibition at 0.1 µM (0.1 uM) [%] | SMILES | also measured
24 | 40 | – | Cc1cccc(-c2ccc(S(=O)(=O)Nc3cccc(C)n3)cc2C)c1 [Example 227] | –
25 | 56 | – | Cc1cccc(NS(=O)(=O)c2ccc(-c3ccccc3C)c(C)c2)n1 [Example 218] | –
26 | 27.2 | – | Cc1cccc(NS(=O)(=O)N2CC(Oc3ccc(F)cc3)C2)n1 [Example 313] | –
27 | – | 78.9 | Cc1cccc(NS(=O)(=O)c2ccc(-c3cccc(C(F)(F)F)c3)cc2)n1 [Example 130] | –
28 | 85.7 | – | Cc1cccc(NS(=O)(=O)c2ccc(-c3ccc(C#N)cn3)cc2)n1 [Example 275] | –
29 | – | 19.2 | CC(=O)Nc1nc(C)c(S(=O)(=O)Nc2cc(C)cc(C)n2)s1 [Example 100] | –
30 | – | 86.8 | Cc1cccc(NS(=O)(=O)c2ccc(-c3ccc(OC(F)(F)F)cc3)cc2)n1 [Example 144] | –
31 | 39.7 | – | Cc1cccc(NS(=O)(=O)c2ccc(-c3cnco3)cc2)n1 [Example 264, N-(6-Methyl-pyridin-2-yl)-4-oxazol-5-yl-benzenesulfonamide] | –
32 | 57 | – | Cc1cccc(NS(=O)(=O)c2ccc(-c3ccc(S(C)(=O)=O)cc3)c(C)c2)n1 [Example 234] | –
33 | – | 87.8 | Cc1cccc(NS(=O)(=O)c2ccc(-c3ccccc3Cl)cc2)n1 [Example 125] | –
34 | 58 | – | Cc1cccc(NS(=O)(=O)c2ccc(-c3cccc(Cl)c3Cl)c(C)c2)n1 [Example 237] | –
35 | 62 | – | Cc1cccc(NS(=O)(=O)c2ccc(-c3ccc4c(c3)OCCO4)c(C)c2)n1 [Example 245] | –
36 | – | 8.9 | Cc1cccc(NS(=O)(=O)c2sc(C)nc2C)n1 [Example 98] | –
37 | – | 75.3 | Cc1cccc(NS(=O)(=O)c2ccc(-c3cccc(OC(F)(F)F)c3)cc2)n1 [Example 153] | –
38 | – | 83.5 | Cc1cccc(NS(=O)(=O)c2ccc(-c3cc(Cl)ccc3Cl)cc2)n1 [Example 134] | –
39 | – | 100 | Cc1cccc(NS(=O)(=O)c2ccc(-c3ccc(C(F)(F)F)cc3)cc2)n1 [Example 157] | –
40 | 70 | – | COc1ccc(-c2ccc(S(=O)(=O)Nc3cccc(C)n3)cc2C)cc1C [Example 243] | –

Row | inhibition at 0.1 µM (compound at 0.1 uM) [%] | inhibition at 0.1 µM (0.1 uM) [%] | SMILES | also measured
41 | – | 8.1 | Cc1cccc(N(C)S(=O)(=O)c2ccc(-c3ccc(C#N)cc3)cc2)n1 [Example 110, 4′-Cyano-biphenyl-4-sulfonic acid methyl-(6-methyl-pyridin-2-yl)-amide] | –
42 | – | 83.8 | CCSc1ccc(-c2ccc(S(=O)(=O)Nc3cccc(C)n3)cc2)cc1 [Example 141] | –
43 | 2.4 | – | Cc1cccc(NS(=O)(=O)c2ccc(N3CCCCC3)nc2)n1 [Example 269, N-(6-methylpyridin-2-yl)-6-piperidin-1-ylpyridine-3-sulfonamide] | –
44 | 61 | – | Cc1cccc(NS(=O)(=O)c2ccc(-c3ccc(F)cc3C)c(C)c2)n1 [Example 242] | –
45 | – | 71.7 | COc1ccccc1-c1ccc(S(=O)(=O)Nc2cccc(C)n2)cc1 [Example 120] | –
46 | 60.1 | – | COc1cc(-c2ccc(C#N)cc2)ccc1S(=O)(=O)Nc1cccc(C)n1 [Example 276, 4′-Cyano-3-methoxy-biphenyl-4-sulfonic acid (6-methyl-pyridin-2-yl)-amide] | –
47 | – | 59 | Cc1cccc(NS(=O)(=O)c2ccc(-c3ccc(C(C)(C)C)cc3)cc2C)n1 [Example 175] | –
48 | 13.3 | – | Cc1cccc(NS(=O)(=O)N2Cc3ccccc3C2)n1 [Example 298] | –
49 | 17 | – | Cc1cccc(NS(=O)(=O)c2ccc(-c3cn[nH]c3)cc2)n1 [Example 250] | –
50 | – | 11.3 | Cc1c(Cl)cccc1S(=O)(=O)Nc1cccc(CCO)n1 [Example 114, 3-Chloro-N-[6-(2-hydroxy-ethyl)-pyridin-2-yl]-2-methyl-benzenesulfonamide] | –
51 | 14.8 | – | Cc1cccc(NS(=O)(=O)c2ccc(-c3cn(C)cn3)cc2)n1 [Example 260] | –
52 | 67.1 | – | O=S(=O)(Nc1ccc2ccccc2n1)c1ccc(-c2ccccn2)cc1 [Example 287, 4-Pyridin-2-yl-N-quinolin-2-yl-benzenesulfonamide] | –
53 | 55 | – | Cc1cccc(NS(=O)(=O)c2ccc(-c3ccc(O)cc3)cc2C)n1 [Example 199] | –
54 | – | 61.4 | CCOc1cccc(-c2ccc(S(=O)(=O)Nc3cccc(C)n3)cc2)c1 [Example 121] | –
55 | – | 100 | Cc1cccc(NS(=O)(=O)c2ccc(-c3cc(Cl)cc(Cl)c3)cc2)n1 [Example 131] | –
56 | – | 57.2 | CC(=O)c1cccc(-c2ccc(S(=O)(=O)Nc3cccc(C)n3)cc2)c1 [Example 148] | –
